The record followed here is patent US12065654B2, “Plants having increased tolerance to herbicides” (BASF SE, priority 2014, dated 2024).

The Ki is the dissociation constant of the complex between target and ligand, obtained from inhibition or displacement. Lower therefore signals higher affinity.

Experiment [1] concerns the target T1, Hordeum HPPD (SEQ ID NO:2) (Hordeum vulgare, UniProt O48604, A164G/R146V/R147D/R148G).
T1 construct: His-tag (N); made in house; host or cells: E. coli BL21 (DE3)
As to the kind of experiment: HPPD activity assay. Type of experiment: biochemical. The note with it: HPPD enzyme Hordeum.

The test system of a further experiment is HPPD Seq ID 69 ID406. As to the kind of experiment: HPPD activity assay. To be noted: HPPD enzyme Seq ID 69 ID406. It is filed as biochemical, Zea mays. On the procedure:
(§1) The activity assay for HPPD is based on the analysis of homogentisic acid by reversed phase HPLC.
(§2) The assay mixture can contain 150 mM potassium phosphate buffer pH 7.0, 50 mM L-ascorbic acid, 100 μM Catalase (Sigma-Aldrich), 1 μM FeSO4 and 0.2 units of purified HPPD enzyme in a total volume of 505 μl. 1 unit is defined as the amount of enzyme that is required to produce 1 nmol of HGA per minute at 20° C.
(§3) The reaction is allowed to proceed for 45 min at room temperature. The reaction is stopped by the addition of 50 μl of 4.5 M phosphoric acid. The sample is filtered using a […] pore size PVDF filtration device. 5 μl of the cleared sample is analyzed on an UPLC HSS T3 column (particle size 1.8 μm, dimensions 2, 1×50 mm; Waters) by isocratic elution using 90% 20 mM NaH2PO4 pH 2.2, 10% methanol (v/v).
(§4) HGA is detected electrochemically at 750 mV (mode: DC; polarity: positive) and quantified by integrating peak areas (Empower software; Waters).
(§5) Inhibitors are dissolved in DMSO (dimethylsulfoxide) to a concentration of 0.5 mM. From this stock solution serial five-fold dilutions are prepared in DMSO, which are used in the assay. The respective inhibitor solution accounts for 1% of the assay volume. Thus, final inhibitor concentrations range from 5 μM to 320 pM, respectively. Activities are normalized by setting the uninhibited enzyme activity to 100%. IC50 values are calculated using non-linear regression.
(§6) Using methods which are described in the above examples or well known in the art, purified recombinant wild-type HPPD enzymes are characterized with respect to their kinetic properties and sensitivity towards HPPD inhibiting herbicides. Apparent michaelis constants (Km) and maximal reaction velocities (Vmax) are calculated by non-linear regression with the software GraphPad Prism 5 (GraphPad Software, La Jolla, USA) using a substrate inhibition model. […] Weighted means (by standard error) of Km and IC50 values are calculated from at least three independent experiments. The Cheng-Prusoff equation for competitive inhibition (Cheng, Y. C.; Prusoff, W. H. Biochem Pharmacol 1973, 22, 3099-3108) is used to calculate dissociation constants (Ki).
(§7) Field performance of the HPPD enzyme, which is used as a herbicide tolerance trait may depend not only on its lack of sensitivity towards HPPD inhibiting herbicides but also on its activity. To assess the potential performance of a herbicide tolerance trait a tolerance index (TI) is calculated using the following formula: […]
(§8) Easy comparison and ranking of each trait is enabled by normalizing tolerance indexes on Arabidopsis wild-type HPPD.

Another experiment relates to HPPD Seq ID 67 ID10. As to the kind of experiment: HPPD activity assay. Type of experiment: biochemical, Zea mays. To be noted: HPPD enzyme Seq ID 67 ID10. On the procedure:
as §1, §2, §3, §4, §5, §6, §7, §8

In experiment [2] the target is T2, Arabidopsis HPPD M335H, P336G, E363Q (Arabidopsis thaliana, UniProt P93836, E363Q/M335H/P336G).
T2 construct: His6 (N); made in house; host or cells: E. coli BL21 (DE3)
Type of experiment: biochemical. To be noted: Arabidopsis HPPD variant M335H, normalized on wild-type. On the procedure: as §1, §2, §3, §4, §5
(§9) Purified, mutant HPPD enzymes are obtained by the methods described above. Dose response and kinetic measurements are carried out using the described HPPD activity assay. Apparent michaelis constants (Km) and maximal reaction velocities (Vmax) are calculated by non-linear regression with the software GraphPad Prism 5 (GraphPad Software, La Jolla, USA) using a substrate inhibition model. […] Weighted means (by standard error) of K. and IC50 values are calculated from at least three independent experiments. The Cheng-Prusoff equation for competitive inhibition (Cheng, Y. C.; Prusoff, W. H. Biochem Pharmacol 1973, 22, 3099-3108) is used to calculate dissociation constants (Ki).
(§10) Field performance of the optimized HPPD enzyme, which is used as a herbicide tolerance trait may depend not only on its lack of sensitivity towards HPPD inhibiting herbicides but also on its activity. To assess the potential performance of a herbicide tolerance trait a tolerance index (TI) is calculated using the following formula: […]
(§11) Easy comparison and ranking of each trait is enabled by normalizing tolerance indexes on the respective wild-type HPPD.

For experiment [3], the target named is T3, Arabidopsis HPPD M335H, P336A (Arabidopsis thaliana, UniProt P93836, M335H/P336A).
T3 construct: His6 (N); made in house; host or cells: E. coli BL21 (DE3)
It is filed as biochemical. To be noted: Arabidopsis HPPD variant M335H, normalized on wild-type. How it is done:
as §1, §2, §3, §4, §5, §9, §10, §11

The target in another experiment is T4, Arabidopsis HPPD F381L (Arabidopsis thaliana, UniProt P93836, F381L).
T4 construct: His6 (N); made in house; host or cells: E. coli BL21 (DE3)
Type of experiment: biochemical. The note with it: Arabidopsis HPPD variant F381L; normalized on wild-type. On the procedure: as §1, §2, §3, §4, §5, §9, §10, §11

The target of a further experiment is T5, Arabidopsis HPPD F381I (Arabidopsis thaliana, UniProt P93836, F381I).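 Further: reaction started with 4-HPP at 0.05 mM after 30 min preincubation.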
T5 construct: His6 (N); made in house; host or cells: E. coli BL21 (DE3)
Type of experiment: biochemical. The note with it: Arabidopsis HPPD variant F381I; normalized on wild-type. How it is done: as §1, §2, §3, §4, §5, §9, §10, §11

Experiment [4] addresses T6, Arabidopsis HPPD M335H, P336G (Arabidopsis thaliana, UniProt P93836, M335H/P336G).
T6 construct: His6 (N); made in house; host or cells: E. coli BL21 (DE3)
It is filed as biochemical. The note with it: Arabidopsis HPPD variant M335H, normalized on wild-type. On the procedure:
as §1, §2, §3, §4, §5, §9, §10, §11

Experiment [5] has as its target T7, Arabidopsis HPPD M335H, P336A, E363Q (Arabidopsis thaliana, UniProt P93836, E363Q/M335H/P336A).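 Further: reaction started with 4-HPP at 0.05 mM after 30 min preincubation.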
T7 construct: His6 (N); made in house; host or cells: E. coli BL21 (DE3)
Type of experiment: biochemical. To be noted: Arabidopsis HPPD variant M335H, normalized on wild-type. How it is done:
as §1, §2, §3, §4, §5, §9, §10, §11

The subject of another experiment is Chlamydomonas HPPD1. As to the kind of experiment: HPPD activity assay. To be noted: HPPD enzyme Chlamydomonas HPPD1. Type of experiment: biochemical, Chlamydomonas reinhardtii. How it is done: as §1, §2, §3, §4, §5, §6, §7, §8
In experiment [6] the target is T8, Arabidopsis HPPD (SEQ ID NO:53) (Arabidopsis thaliana, UniProt P93836).
T8 construct: His6 (N); made in house; host or cells: E. coli BL21 (DE3)
T8 sequence (P93836 1-445): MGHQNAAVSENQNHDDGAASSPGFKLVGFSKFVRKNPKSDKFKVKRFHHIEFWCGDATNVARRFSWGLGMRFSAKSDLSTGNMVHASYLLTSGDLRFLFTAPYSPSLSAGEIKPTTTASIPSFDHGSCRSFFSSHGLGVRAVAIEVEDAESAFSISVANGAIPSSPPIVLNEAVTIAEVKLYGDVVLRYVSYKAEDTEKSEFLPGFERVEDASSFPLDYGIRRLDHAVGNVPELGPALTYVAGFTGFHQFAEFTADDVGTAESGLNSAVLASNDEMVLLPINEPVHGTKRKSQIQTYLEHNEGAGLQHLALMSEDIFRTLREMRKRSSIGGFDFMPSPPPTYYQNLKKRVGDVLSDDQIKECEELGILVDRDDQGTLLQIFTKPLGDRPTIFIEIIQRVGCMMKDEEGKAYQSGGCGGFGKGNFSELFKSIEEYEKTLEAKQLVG
As to the kind of experiment: HPPD activity assay (HPLC of homogentisic acid). It is filed as biochemical. To be noted: for Normalized tolerance index (TI): Arabidopsis HPPD variant Wild-type (reference, SEQ ID: 53); for TI (tolerance index): Arabidopsis HPPD, not normalized; for TI normalized to Arabidopsis HPPD: HPPD enzyme Arabidopsis (reference). On the procedure:
as §1, §2, §3, §4, §5, §6, §7, §8

T1 sequence (O48604 whole entry R146V/R147D/R148G/A164G): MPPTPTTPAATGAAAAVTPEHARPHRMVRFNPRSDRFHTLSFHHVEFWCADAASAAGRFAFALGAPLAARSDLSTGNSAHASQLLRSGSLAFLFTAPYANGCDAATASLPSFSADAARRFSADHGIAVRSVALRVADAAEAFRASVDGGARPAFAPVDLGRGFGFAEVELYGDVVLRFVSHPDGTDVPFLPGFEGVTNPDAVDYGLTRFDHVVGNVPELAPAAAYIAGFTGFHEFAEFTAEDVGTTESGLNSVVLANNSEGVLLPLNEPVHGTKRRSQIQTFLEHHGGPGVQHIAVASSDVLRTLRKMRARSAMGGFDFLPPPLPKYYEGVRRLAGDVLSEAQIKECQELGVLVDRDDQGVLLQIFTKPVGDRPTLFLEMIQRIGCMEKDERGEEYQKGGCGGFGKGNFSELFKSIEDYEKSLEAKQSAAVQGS
T7 sequence (P93836 whole entry M335H/P336A/E363Q): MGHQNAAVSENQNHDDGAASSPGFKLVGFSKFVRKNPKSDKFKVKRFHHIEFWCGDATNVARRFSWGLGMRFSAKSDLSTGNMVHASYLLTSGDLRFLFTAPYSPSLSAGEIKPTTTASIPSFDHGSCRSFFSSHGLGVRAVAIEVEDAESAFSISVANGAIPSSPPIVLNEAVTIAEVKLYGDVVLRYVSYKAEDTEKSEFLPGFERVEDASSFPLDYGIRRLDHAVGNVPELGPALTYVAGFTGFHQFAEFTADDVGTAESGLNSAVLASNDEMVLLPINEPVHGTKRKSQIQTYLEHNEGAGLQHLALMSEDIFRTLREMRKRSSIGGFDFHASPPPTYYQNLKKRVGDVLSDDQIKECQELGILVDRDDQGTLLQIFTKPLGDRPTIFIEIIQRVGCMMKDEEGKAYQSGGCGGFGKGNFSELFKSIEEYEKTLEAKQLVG
T4 sequence (P93836 whole entry F381L): as the sequence (P93836 whole entry M335H/P336A/E363Q) above, with H335M, A336P, Q363E, F381L counted along it
T5 sequence (P93836 whole entry F381I): as the sequence (P93836 whole entry M335H/P336A/E363Q) above, with H335M, A336P, Q363E, F381I counted along it
T6 sequence (P93836 whole entry M335H/P336G): as the sequence (P93836 whole entry M335H/P336A/E363Q) above, with A336G, Q363E counted along it
T3 sequence (P93836 whole entry M335H/P336A): as the sequence (P93836 whole entry M335H/P336A/E363Q) above, with Q363E counted along it
T2 sequence (P93836 whole entry M335H/P336G/E363Q): as the sequence (P93836 whole entry M335H/P336A/E363Q) above, with A336G counted along it

`Cc1c(C(=O)c2cnn(C)c2O)ccc(S(C)(=O)=O)c1C1=NOCC1` [Inhibitor 1, [3-(4,5-dihydroisoxazol-3-yl)-2-methyl-4-methylsulfonyl-phenyl]-(5-hydroxy-1-methyl-pyrazol-4-yl)methanone]: the “TI normalized to Arabidopsis HPPD” value was 3.7 in [1]; 15 with HPPD Seq ID 69 ID406; 120.8 with HPPD Seq ID 67 ID10; 1.7 in the experiment on Chlamydomonas HPPD1; 1 in experiment [6]. The “Normalized tolerance index (TI)” value in experiment [2] amounted to 3; in experiment [3] it was 3.4; on Arabidopsis HPPD F381L, 11; at Arabidopsis HPPD F381I, 10.8; in [4], 5; in experiment [5] it was 6.4. Besides, the “Normalized tolerance index (TI)” value in [6] was found to be 1. Further, the “TI (tolerance index)” value in experiment [6] came to 9.5E−4.
On to `CS(=O)(=O)c1ccc(C(=O)C2C(=O)CCCC2=O)c([N+](=O)[O-])c1` [Inhibitor 2, 2-(4-methylsulfonyl-2-nitro-benzoyl)cyclohexane-1,3-dione], for which the “TI normalized to Arabidopsis HPPD” value is on record as 0.9 in experiment [1]; 5.6 in the experiment on HPPD Seq ID 69 ID406; 22.9 in the experiment on HPPD Seq ID 67 ID10; 0.1 with Chlamydomonas HPPD1; 1 in [6]. Further, the “Normalized tolerance index (TI)” value amounted to 0.1 in experiment [2]; 0.1 in experiment [3]; 0.1 on Arabidopsis HPPD F381L; 0.1 on Arabidopsis HPPD F381I; 0.1 in [4]; 0.3 in [5]. For the same molecule, the “Normalized tolerance index (TI)” value in experiment [6] is on record as 1. In experiment [6], this molecule showed a Ki of 0.036 µM. Also, the “TI (tolerance index)” value in [6] came to 3.6E−2.
Turning to `COCCOCc1nc(C(F)(F)F)ccc1C(=O)C1=C(O)C2CCC(C2)C1=O` (stereo not drawn) [Inhibitor 3, 2-hydroxy-3-[2-(2-methoxyethoxymethyl)-6-(trifluoromethyl)pyridine-3-carbonyl]bicyclo[3.2.1]oct-2-en-4-one], the “TI normalized to Arabidopsis HPPD” value in experiment [1] is listed as 0.2; with HPPD Seq ID 69 ID406, 9.9; in the experiment on HPPD Seq ID 67 ID10 it was 20.1; in the experiment with Chlamydomonas HPPD1 it was 0.1; in [6], 1. Further, the “Normalized tolerance index (TI)” value in experiment [2] amounted to 0.1; in experiment [3] it was 0.1; at Arabidopsis HPPD F381L, 0.1; at Arabidopsis HPPD F381I, 0.1; in [4] it was 0.3; in experiment [5], 0.5. Moreover, the “Normalized tolerance index (TI)” value in experiment [6] stood at 1.
Regarding `CS(=O)(=O)c1ccc(C(=O)C2C(=O)CCCC2=O)c(Cl)c1COCC(F)(F)F` [Inhibitor 4, 2-[2-chloro-4-methylsulfonyl-3-(2,2,2-trifluoroethoxymethyl)benzoyl]cyclohexane-1,3-dione], the “TI normalized to Arabidopsis HPPD” value stood at 0.1 in [1]; 5.5 in the experiment on HPPD Seq ID 69 ID406; 26 in the experiment on HPPD Seq ID 67 ID10; 0.1 in the experiment on Chlamydomonas HPPD1; 1 in experiment [6]. Further, the “Normalized tolerance index (TI)” value in experiment [2] is 0.1; in experiment [3], 0.1; at Arabidopsis HPPD F381L, 0.1; on Arabidopsis HPPD F381I, 0.1; in experiment [4] it was 0.2; in experiment [5], 0.3. Also, the “Normalized tolerance index (TI)” value in experiment [6] was determined as 1.
